Data: patent US20250177340A1, “Tartaric Acid Analogs and Uses Thereof” (Lapix Therapeutics, Inc., priority 2021, published 2025)
pEC50: −log10 of the molar value.

Tests used:
[1] = tested on: murine CD8+ T cells; experiment: Murine CD8+ T-cell proliferation (CFSE), Example 6; format: cell-based, C57BL/6 mice
Experimental: Preparation of test materials: TTA, compound A and compound B were formulated in RPMI media under aseptic conditions. The pH was adjusted to approximately 7.5 before dosing cells.
Tissue culture and dosing: Splenocytes of C57BL/6 mice were stained with CFSE and prepared, cultured, and dosed. Cells were seeded at 1×10^5 cells/well in a 96-well round-bottomed plate.
Controls: Two controls were used. A negative control dosed with 10 ng/ml IL2 was used, and a positive control dosed with 20 μg/ml ConA and 10 ng/ml IL2 was used.
Treatment: After ConA stimulation (10 μg/ml), cells were dosed with 30 mM compound A, B or C with or without 0.1 mM 30:70 PS:DMPC liposomes. All wells were dosed with 10 ng/ml of IL-2.

[2] = tested on: T-cells isolated from spleens; experiment: FoxP3/KLRG-1/CTLA4 in T-cells isolated from spleens of compound D-treated animals; format: in vivo; settings: 2.5 mg IV daily for seven days
Experimental: Animals were treated with 2.5 mg of compound D IV daily for seven days. Upon completion of the treatment period, T-cells isolated from spleens of the animals were analyzed by flow cytometry.

[3] = tested on: Granzyme B and IFN-γ; experiment: Dose-response of GranzymeB/IFN-γ double positivity in murine CD8+ T-cells, Example 9; format: cell-based, C57BL/6 mice; settings: Mus musculus, T-cell
Experimental: A dose-response analysis of compounds B-E in murine CD8+ T-cells was conducted to evaluate the effect of dose on GranzymeB/IFN-γ double positivity.
Compound C, D and E were first dissolved in a small volume of DMSO before diluting to the final desired concentration.
Splenocytes from naïve C57BL/6 mice were stained with CFSE, prepared, cultured, and dosed. Cells were seeded at 2×10^5 cells/well. Negative control was dosed with 10 ng/ml IL-2. After ConA stimulation (10 μg/ml), cells were dosed with log 3 dilution of each compound from 3×10^−9 to 30 µM in triplicates. All wells were dosed with 10 ng/ml of IL-2.
Flow cytometer analysis was performed to assess percent CD8+ T-cells and percent activation by double staining for Granzyme B (GzmB) and IFN-γ as described in Example 7. Concentration versus response curve was fitted to a 4- or 5-parameter log-logistic model using the “dre” package in “R”. Both EC50 and EC90 were obtained by model fitting.

[4] = tested on: KLRG1; experiment: Percent KLRG1+ T-cells in spleens, single dose on Day 7 (Examples 17, 19, 20); format: in vivo, C57BL6 mice; settings: for activity after oral administration (KLRG1+, PD1+ T-cells): single PO dose: E 2.5 mg, F 1 mg, G 1 mg; for percent KLRG1+ T-cells compared to untreated animals: single dose, E 0.1, 0.25, 1 mg IV or 2.5 mg PO, F 0.03-1 mg IV or 1 mg PO, G 0.1, 0.4, 1 mg IV or 1 mg PO
Experimental: (§1) Melanoma B16F10 cells were injected IV into C57BL6 mice on Day 0. On Day 7, mice were administered a single dose of 0.1 mg, 0.25 mg, or 1 mg of Compound E IV or 2.5 mg Compound E PO. One group was left untreated. Three mice at each time point were sacrificed, and their spleens were extracted. Percent KLRG1+ and PD-1^+ T-cells were quantified. Briefly, single-cell suspensions prepared from the extracted spleens were prepared and stained for KLRG1, PD-1 and CD8, and analyzed by flow cytometry.
(§2) Melanoma B16F10 cells were injected IV into C57BL6 mice on Day 0. On Day 7, mice were administered a single dose of 0.03 mg, 0.1 mg, 0.3 mg or 1 mg Compound F IV or 1 mg Compound F PO. One group was left untreated. Three mice at each time point were sacrificed, and their spleens were extracted. Percent KLRG1+ and PD-1^+ T-cells were quantified. Briefly, single-cell suspensions prepared from the extracted spleens were prepared and stained for KLRG1, PD-1 and CD8, and analyzed by flow cytometry.
(§3) Melanoma B16F10 cells were injected IV into C57BL6 mice on Day 0. On Day 7, mice were administered a single dose of 0.1 mg, 0.4 mg, or 1 mg Compound G IV or 1 mg Compound G PO. One group was left untreated. Three mice at each time point were sacrificed, and their spleens were extracted. Percent KLRG1+ and PD-1^+ T-cells were quantified. Briefly, single-cell suspensions prepared from the extracted spleens were prepared and stained for KLRG1, PD-1 and CD8, and analyzed by flow cytometry.

[5] = tested on: PD-1; experiment: Percent PD-1+ T-cells in spleens, single dose on Day 7 (Examples 17, 19, 20); format: in vivo, C57BL6 mice; settings: E 0.1, 0.25, 1 mg IV or 2.5 mg PO, F 0.03-1 mg IV or 1 mg PO, G 0.1, 0.4, 1 mg IV or 1 mg PO
Experimental: as §1, §2, §3

[6] = tested on: human CD8+ T cells; experiment: Survival of PS-treated human CD8+ T-cells (viability dye, microscopy)
Experimental: (§14) CD8+ T-cells were stained with CFSE (ThermoFisher Catalog No. 50-169-50), and prepared, cultured, and dosed as described herein. Briefly, cells were seeded at 4×10^5 cells/well. IL-2 (10 ng/ml) was used as a negative control, and ConA (20 μg/ml) in conjunction with IL-2 (10 ng/ml) was used as a positive control. After ConA stimulation (10 μg/ml) in the presence of 10 ng/ml IL-2, cells were dosed in duplicate with PS:DMPC liposomes to give a total of 100, 10, 1, or 0.1 mM of PS. […] Flow cytometer analysis was performed to assess cell survival by viability dye and proliferation by CFSE (gated on survived CD8+ T-cells).
(§15) Cells were observed via a microscope at the end of the incubation period.

[7] = tested on: TGF-β; experiment: TGF-β ELISA in RAW 264.7 cells; format: cell-based, mouse; settings: 0.0001-100 mM, human FVIII antigen
Experimental: (§4) RAW 264.7 cells were prepared, cultured, and dosed as described herein. The RAW 264.7 cell line is an immortalized mouse monocyte macrophage that is very close to primary cells, easy to maintain with minimum manipulation, and known to express TIM4. […] OPLS and TTA were dosed at 100, 70, 50, 30, 10, 3, 1, 0.3, 0.1, 0.03, 0.01, 0.003, 0.001, 0.0003 and 0.0001 mM. Finally, 100 μl of 40 μg/ml of human FVIII as a sample antigen was added to each well. LPS and free protein were used as positive and baseline controls, respectively. OPLS and TTA were formulated in RPMI media in aseptic conditions. The pH was adjusted to approximately 7.5 before dosing cells. TNF-α and TGF-β ELISAs were conducted as per the manufacturer's instructions (TNF-α ELISA kit: R&D systems DY410; TGF-β ELISA kit: R&D systems DY1679).

[8] = tested on: PD-1 and TIM3; experiment: PD-1 and TIM3 expression on PS-treated human CD8+ T-cells (flow cytometry); format: cell-based
Description: (§5) 30:70 PS:DMPC liposomes were synthesized in PBS.

[9] = tested on: TNF-α; experiment: TNF-α ELISA in RAW 264.7 cells; format: cell-based, mouse; settings: 0.0001-100 mM, human FVIII antigen
Experimental: as §4

[10] = tested on: human CD8+ T cells; experiment: Proliferation of PS-treated human CD8+ T-cells (CFSE); format: cell-based; settings: 70 mM L-(+)-tartaric acid with 0.1 mM PS
Description: as §5

[11] = tested on: human CD8+ T cells
Experimental: as §14, §15

[12] = tested on: TIM3 and PD-1; experiment: TIM3+/PD-1+ double-positive murine CD8+ T-cells, Example 7; format: cell-based, C57BL/6 mice; settings: controls: high dose ConA; 0.1 mM PS liposomes
Description: (§6) In this study, the effects of increasing doses of compound B and compound C on proliferation (CFSE staining), activation (Granzyme B and IFN-γ), and checkpoint modulation (PD1 and TIM3) of murine CD8+ T-cells in the presence and absence of phosphatidylserine (PS) were explored.
(§7) Preparation of test materials: 30:70 PS:DMPC liposomes were synthesized in PBS. […] Compound C was first dissolved in a small volume of DMSO before diluting to the final desired concentration.
(§8) Tissue culture and dosing: Splenocytes of C57BL/6 mice were stained with CFSE and prepared, cultured, and dosed. Cells were seeded at 4×10^5 cells/well.
(§9) Controls: Two controls were used. A negative control dosed with 10 ng/ml IL-2 was used, and a positive control dosed with 20 μg/ml ConA and 10 ng/ml IL-2 was used.
(§10) Treatment: After ConA stimulation (10 μg/ml), cells were dosed with log 3 dilution of compound B or compound C to cover a range from 1×10^−3 to 30 mM in duplicates with or without 0.1 mM PS:DMPC liposomes. All wells were dosed with 10 ng/ml of IL-2.
(§11) Flow cytometer: Flow cytometer analysis was performed to assess cell proliferation by CFSE, activation by double staining for Granzyme B (GzmB) and IFN-γ, checkpoint modulation by double staining for PD-1 and TIM3.
(§12) Exposure-response analysis: Change from baseline was calculated for each marker as follows:
(§13) Concentration versus change was fitted to an appropriate three-, four- or five-parameter log-logistic model using “dre” package in “R.”
The fold change from baseline of TIM3+/PD-1+ double-positive CD8+ T-cells as a function of increasing doses of compound B was calculated using equation 1, where Responsecontrol was TIM3+/PD-1+ double-positive CD8+ T-cells in cells treated with IL-2 alone and Responsetreatment was TIM3+/PD-1+ double-positive CD8+ T-cells at each dose of compound B. The baseline PS response was calculated using the same equation with Responsetreatment as the TIM3+/PD-1+ double-positive CD8+ T-cells treated with 0.1 mM PS.

[13] = tested on: Granzyme B and IFN-γ; experiment: GzmB+/IFN-γ+ double-positive murine CD8+ T-cells, Example 7; format: cell-based, C57BL/6 mice; settings: controls: high dose ConA; 0.1 mM PS liposomes
Description: as §6, §7, §8, §9, §10, §11, §12, §13
The fold change from baseline GzmB+/IFN-γ+ double-positive CD8+ T-cells as a function of increasing doses of compound B was calculated using equation 1, where Responsecontrol was GzmB+/IFN-γ+ double-positive CD8+ T-cells in cells treated with IL-2 alone and Responsetreatment was GzmB+/IFN-γ+ double-positive CD8+ T-cells at each dose of compound B. The baseline PS response was calculated using the same equation with Responsetreatment as the GzmB+/IFN-γ+ double-positive CD8+ T-cells treated with 0.1 mM PS.

[14] = tested on: murine CD8+ T-cells; experiment: Murine CD8+ T-cell proliferation concentration-response (CFSE), Example 7; format: cell-based, C57BL/6 mice
Description: as §6, §7, §8, §9, §10, §11, §12, §13
The fold change from baseline of CD8+ T-cells proliferation as a function of increasing doses of compound B was calculated using equation 1, where ResponseControl was the proliferation of cells treated with IL-2 alone and Responsetreatment was the proliferation at each dose of compound B. The baseline PS response was calculated using the same equation where Responsetreatment was the proliferation of cells treated with 0.1 mM PS.

[15] = 30 mM, in absence of PS, ConA 10 μg/ml
[16] = 70 mM L-(+)-tartaric acid with 0.1 mM PS

## O=C(O)[C@H](O)[C@@H](O)C(=O)OCc1ccccc1 [A, (2R,3R)-4-(benzyloxy)-2,3-dihydroxy-4-oxobutanoic acid]
[1]; [15]
  percent of CD8+ T-cell proliferation: 64.4%

## O=C(O)[C@H](O)[C@@H](O)C(=O)OCCC1c2ccccc2-c2ccccc21 [Compound D, (2R,3R)-4-(2-(9H-fluoren-9-yl)ethoxy)-2,3-dihydroxy-4-oxobutanoic acid]
[2]
  CTA4+/CD8+ T-cells: 0.27%
  FoxP3+ CD4+ T-cells: 5.42%
  KLRG-1+/CD8+ T-cells: 5.11%
  reduction in CTA4+/CD8+ T-cells: 27%
  reduction in FoxP3+ CD4+ T-cells compared to control animals: 58%
  reduction in KLRG-1+/CD8+ T-cells: 80%
[3]; 4-parameter model
  pEC50: 8.39
  EC90: 0.05 µM
[3]; 5-parameter model
  pEC50: 8.46
  EC90: 0.039 µM
[3]; FIG. 4, 5-parameter fit, read-out: maximal response (GzmB/IFN-γ double positive CD8+ T-cells)
  Emax: 40%

## O=C(O)[C@H](O)[C@@H](O)C(=O)NCCn1c2ccccc2c2ccccc21 [Compound F, (2R,3R)-4-((2-(9H-carbazol-9-yl)ethyl)amino)-2,3-dihydroxy-4-oxobutanoic acid]
[4]
  activity after oral administration (KLRG1+, PD1+ T-cells): effective after oral administration
  percent KLRG1+ T-cells compared to untreated animals: dose-dependent reduction
[5]
  percent PD1+ T-cells compared to untreated animals: dose-dependent reduction

## O=C(O)[C@H](O)[C@@H](O)C(=O)NCCCc1ccccc1 [Compound G, (2R,3R)-2,3-dihydroxy-4-oxo-4-((3-phenylpropyl)amino)butanoic acid]
[4]
  activity after oral administration (KLRG1+, PD1+ T-cells): effective after oral administration
  percent KLRG1+ T-cells compared to untreated animals: dose-dependent reduction
[5]
  percent PD1+ T-cells compared to untreated animals: dose-dependent reduction

## O=C(O)[C@H](O)[C@@H](O)C(=O)O [L-(+)-tartaric acid]
[6]; [16]
  increase in viable CD8+ T cells compared to PS-treated cells alone: 65%
[7]
  TGF-β production: without stimulating TGF-β production
[8]; [16]
  PD-1 expression: 23%
  TIM3 expression: 0.527%
  decrease of TIM3 expression compared to PS only group: about 66%
  frequency of cells co-expressing PD-1 and TIM3: 0.198%
  reduction of PD-1 expression compared to PS only-treated group: about 35%
  reduction of cells co-expressing PD-1 and TIM3 compared to PS only: 91.4%
[9]
  TNF-α production: stimulate TNF-α production
[10]
  effect on PS-suppressed CD8+ T-cell proliferation/accumulation (CFSE): partially reversed the effect of PS
[1]; [15]
  percent of CD8+ T-cell proliferation: 41.74%

## phosphatidylserine [PS, reference compound]
[11]
  microscopic observation of cells: did not look healthy
[12]
  fold increase in TIM3+/PD-1+ double-positive CD8+ T-cells vs negative control: 1.27 fold
[13]
  GzmB+/IFN-γ+ double-positive CD8+ T-cells relative to negative control: one half
[6]; controls: ConA 20 μg/ml + IL-2, 0.1 mM PS after ConA stimulation
  CD8+ T-cell survival: 25.9%
[8]; 0.1 mM PS only
  PD-1 expression: 35%
  TIM3 expression: 1.53%
  frequency of cells co-expressing PD-1 and TIM3: 2.31%
[14]; 0.1 mM PS
  fold increase in CD8+ T-cell proliferation compared to control cells: 28 fold
[14]; controls: high dose ConA 20 μg/ml, 0.1 mM PS liposomes
  percent proliferation of CD8+ T-cells: 4.24%
[1]; controls: ConA 20 μg/ml + IL2, 0.1 mM PS
  percent of CD8+ T-cell proliferation: 4.84%
